- melting point: 83 °C
SMILES: CCc1ccc(C(O)COc2ccc(C=O)cc2)nc1 (stereo not shown) [Compound 9a, 4-[2-(5-Ethyl-pyridin-2-yl)-2-hydroxy-ethoxy]-benzaldehyde]

From patent US7863300B2, “Process to prepare pioglitazone via several novel intermediates” (Cadila Healthcare Limited, priority 2002, dated 2011)
